In publication PMC10449060 (Analysis & sensing, 2022):
Entries after “also recorded” stand apart in the source; their conditions may differ.

How the values were obtained:
[1] = molecular target: T1, CatC (Homo sapiens, UniProt P53634); assay: E-64 inhibition of CatC activity; assay type: biochemical; conditions: compared with literature ~500 μM
[2] = molecular target: T1, CatC; conditions: only at high concentrations; cited from earlier work
[3] = tested on: cathepsin F; assay: 50 mM acetate buffer pH 5 with 1 mM EDTA and 1 mM DTT; conditions: up to 24 hours
[4] = tested on: cathepsin F (CatF); assay: cathepsin F in 50 mM acetate buffer pH 5 with 1 mM EDTA and 1 mM DTT; conditions: up to 24 hours
[5] = tested on: cathepsin H (CatH); assay: cathepsin H in 50 mM acetate buffer pH 5 with 1 mM EDTA and 1 mM DTT; conditions: up to 24 hours
[6] = tested on: cathepsin L (CatL); assay: cathepsin L in 50 mM acetate buffer pH 5 with 1 mM EDTA and 1 mM DTT; conditions: up to 8 hours
[7] = tested on: cathepsin A (CatA); assay: cathepsin A; conditions: 37°C, up to 8 hours
[8] = tested on: cathepsin C (CatC); assay: cathepsin C; conditions: 37°C, up to 24 hours
[9] = tested on: cathepsin B (CatB); assay: cathepsin B in 50 mM acetate buffer pH 5 with 1 mM EDTA and 1 mM DTT; conditions: up to 8 hours

T1 sequence (P53634 25-134 limits assumed): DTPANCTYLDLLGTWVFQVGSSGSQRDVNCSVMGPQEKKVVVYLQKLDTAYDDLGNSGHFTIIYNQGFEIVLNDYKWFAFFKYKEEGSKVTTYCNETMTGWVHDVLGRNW
T1 sequence (P53634 231-394 limits assumed): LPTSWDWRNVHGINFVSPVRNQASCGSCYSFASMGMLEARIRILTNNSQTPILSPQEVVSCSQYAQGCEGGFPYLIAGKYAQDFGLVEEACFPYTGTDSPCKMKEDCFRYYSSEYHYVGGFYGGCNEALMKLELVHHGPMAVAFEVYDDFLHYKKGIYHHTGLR
T1 sequence (P53634 395-463 limits assumed): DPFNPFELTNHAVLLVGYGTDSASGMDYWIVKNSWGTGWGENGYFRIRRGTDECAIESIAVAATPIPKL

Row | Molecule | not cleaved [4] | fragment found [5] | fragment found [6] | fragment found [7] | not cleaved [8] | fragment found [9] | not cleaved [9] | also measured
1 | CC(C)C[C@H](NC(=O)[C@H]1O[C@@H]1C(=O)O)C(=O)NCCCCN=C(N)N (relative stereo) [E-64, L-trans-Epoxysuccinyl-leucylamido(4-guanidino) butane] |  |  |  |  |  |  |  | E-64 inhibition of CatC activity observed by the authors [1]: activity inhibition at much-reduced concentration; concentration at which E-64 inhibits CatC [2]: ~ 500 μM
2 | AKAKTDHGAEIVYK | no proteolytic digestion | TDHGAEIVYK; also recorded: DHGAEIVYK | IVYK and TDHGAEIVY and HGAEIVYK and GAEIVYK and AKTDHGAEIVYK and AKAKTDHGAEIVY | AKAKTDHGAEIVY, 0.5h; also recorded: AKAKTDHGAEIV; also recorded: AKAKTDHGAEI; also recorded: KTDHGAEIV; also recorded: AKTDHGAEIV; also recorded: KTDHGAEI; also recorded: AKTDHGAEI |  |  |  | not cleaved [3]: no proteolytic digestion; fragment found [8]: TDHGAEIVYK
3 | AKAKTDHGAEIVYK (D-Asp variant) | no proteolytic digestion | TDHGAEIVYK | IVYK and AKTDHGAEIVYK and AKAKTDHGAEIVY | AKAKTDHGAEIVY, 0.5h; also recorded: AKAKTDHGAEIV; also recorded: AKAKTDHGAEI | no TDHGAEIVYK after 24 h |  |  | 
4 | AKAKTDHGAEIVYK (D-isoAsp variant) | no proteolytic digestion | TDHGAEIVYK | IVYK and AKTDHGAEIVYK and AKAKTDHGAEIVY | AKAKTDHGAEIVY, 0.5h; also recorded: AKAKTDHGAEIV; also recorded: AKAKTDHGAEI | no TDHGAEIVYK after 24 h |  |  | fragment found [8]: IVYK
5 | AKAKTDHGAEIVYK (L-isoAsp variant) |  | TDHGAEIVYK | AKAKTDHGAEIVY and IVYK and AKTDHGAEIVYK | AKAKTDHGAEIVY, 0.5h; also recorded: AKAKTDHGAEIV; also recorded: AKAKTDHGAEI | no TDHGAEIVYK after 24 h |  |  | 
6 | SEMRLEKDRFSVNL |  |  |  |  |  | SEMRLEKDRF and SEMRLEKDR and LEKDRF and EKDRF and KDRF |  | fragment found [4]: SEMRLE; also recorded: KDRFSVNL; also recorded: SEMR, minor, longer time-points
7 | SEMRLEKDRFSVNL (D-Asp variant) |  |  |  |  |  | SEMRLEKDRF; also recorded: SEMRLEKDR | no cleavage C-terminal to isomerized Asp | 
8 | SEMRLEKDRFSVNL (D-isoAsp variant) |  |  |  |  |  | SEMRLEKDRF; also recorded: SEMRLEKDR | no cleavage C-terminal to isomerized Asp | 
9 | SEMRLEKDRFSVNL (L-isoAsp variant) |  |  |  |  |  | SEMRLEKDRFS and SEMRLEKDRF and SEMRLEKDR and KDRF | no cleavage C-terminal to isomerized Asp | 
